Results on 1 compound are retold here after PMC12008195 (Scientific Reports, 2025).

Each structure is given as a SMILES string.

Data set [1] concerns HCT-116 (human colon cancer). Particulars: read-out: IC50 HCT-116; MTT, 24-hour exposure; cited from earlier work.
Data set [2] concerns MCF-7 (mammary gland breast cancer). Particulars: read-out: IC50 MCF-7; MTT, 24-hour exposure; cited from earlier work.
The test system of data set [3] is HepG-2 cells. The data set is described as follows: Cell cycle analysis, propidium iodide flow cytometry. Type of data set: cell-based, human. The note with it: 3b at 6 µM.
Data set [4] has as its system Bcl-2. The data set is described as follows: RT-PCR gene expression of Bcl-2 in HepG-2 cells. Type of data set: cell-based, human. Particulars: versus untreated cells.
The conditions of data set [5]: cited from earlier work.
The test system of data set [6] is HepG-2 cells. In words: Annexin-V/propidium iodide staining assay. The format is cell-based, human.
Data set [7] relates to HepG2 (hepatocellular carcinoma). Particulars: read-out: IC50 HepG-2; MTT, 24-hour exposure; cited from earlier work.
In data set [8] the test system is WI-38 (human lung fibroblasts). Particulars: read-out: IC50 WI-38 human fibroblasts; MTT, normal non-cancer cells; cited from earlier work.

As to `Cc1cc2c(cc1C)N[C@H](c1ccccc1)[C@@H](O)C(=O)N2` [Compound 3b, (3R,4R)−3-hydroxy-7,8-dimethyl-4-phenyl-1,3,4,5-tetrahydro-2 H-1,5-benzodiazepin-2-one], the IC50 in data set [1] is 9.18 µM; in data set [2], 7.86 µM; in data set [7], 6.13 µM; in data set [8] it was 14 µM. Further, the “Increase of DNA content at G2/M phase compared to non-treated cells” value in data set [3] was 28%. Moreover, the “Gene expression fold change Bcl-2” value in data set [4] turned out to be 0.339 fold. Further, the “Lipinski's rule of five” value in data set [5] (MW ≤ 500 Da, LogP < 5, nHBD ≤ 5, nHBA ≤ 10, TPSA < 140 Å2) is “satisfied”. Moreover, in data set [5] (in silico studies), the Predicted oral bioavailability result is recorded as “good”. In addition, in data set [6], the “Fold increase in the proportion of necrotic cells versus control” value turned out to be 2.6 fold.
